Our source for the microsomal CLint and Papp values is patent publication US9409952B2, “Peptide-compound cyclization method” (Chugai Seiyaku Kabushiki Kaisha, priority 2011, dated 2016).

Data set [1] can be described thus: Metabolic stability in human hepatic microsome. As to conditions: microsomes, pH 7.4; human hepatic microsome, NADPH(+); read-out: CL NADPH(+). It is filed as in vitro ADME.
Data set [2] is described as follows: PAMPA (parallel artificial membrane permeability assay). It is filed as in vitro ADME. As to conditions: PAMPA; membrane permeation rate (Pe); 50 mM MOPSO buffer pH 6.5 with 5.0% glycocholic acid, 37° C., 18 hours; read-out: iPAMPA Pe. An outline of the steps: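 Artificial membrane was 10% (w/v) egg lecithin plus 0.5% (w/v) cholesterol in dodecane on a PVDF filter. A 10 mM DMSO stock was added at 0.5% (v/v) to donor buffer (50 mM MOPSO, pH 6.5, 5.0% glycocholic acid). After 18 h at 37 °C, LC/MS or LC/UV gave donor and acceptor levels for Pe.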

Structures are written as SMILES. Starred links: 1 amine or outer side, 2 acyl side, 3 side chain; linkers in the order of their positions; H or OH if unused. Positions of bridges follow the written chain, without caps; N, C: chain ends. Non-standard residues stand in square brackets, D forms with d. Residues, ends and D or L forms follow the SMILES beside them. *: point of attachment. Phe(3-(CH2)4CO) = O=C([C@H](Cc1cccc(CCCCC(=O)[*:3])c1)N[*:1])[*:2]; NMeF = CN[C@@H](Cc1ccccc1)C(=O)O; NMeI = CC[C@H](C)[C@H](NC)C(=O)O; NMeL = CN[C@@H](CC(C)C)C(=O)O; NMeA = CN[C@@H](C)C(=O)O; Piperidide = C1CCN(*)CC1; Sar = CNCC(=O)O

Consider `C=C1CCC(=O)NCC(=O)N(C)[C@@H](C)C(=O)N[C@@H](CC(C)C)C(=O)N[C@@H](C(C)C)C(=O)N(C)[C@@H](CC(C)C)C(=O)N[C@@H](Cc2ccccc2)C(=O)N(C)[C@@H](Cc2ccccc2)C(=O)N[C@@H]([C@@H](C)CC)C(=O)N(C)[C@@H](C)C(=O)N[C@@H](CC(C)C)C(=O)N[C@@H]([C@@H](C)O)C(=O)N[C@H](C(=O)N2CCCCC2)Cc2ccc1cc2` [DP-887], for which the microsomal CLint at 1 uM in data set [1] came out at 103 µL/min/mg. In addition, the Papp at 18 hours, 50 µM in data set [2] was 3.9 ×10⁻⁶ cm/s.

`C=C1CCC(=O)N[C@@H](CC(C)C)C(=O)N[C@@H](C(C)C)C(=O)N(C)[C@@H](CC(C)C)C(=O)N[C@@H](Cc2ccccc2)C(=O)N(C)[C@@H](Cc2ccccc2)C(=O)N[C@@H]([C@@H](C)CC)C(=O)N(C)[C@@H](C)C(=O)N[C@@H](CC(C)C)C(=O)N[C@@H]([C@@H](C)O)C(=O)N[C@H](C(=O)N2CCCCC2)Cc2ccc1cc2` [DP-888]: in data set [1], the microsomal CLint at 1 uM came to 69 µL/min/mg. For the same compound, the Papp at 18 hours, 50 µM in data set [2] worked out at 0.81 ×10⁻⁶ cm/s.

With `C=C1CCC(=O)NCC(=O)N(C)[C@@H](C)C(=O)N[C@@H](CC(C)C)C(=O)N[C@@H](C(C)C)C(=O)N(C)[C@@H](CC(C)C)C(=O)N[C@@H](Cc2ccccc2)C(=O)N(C)[C@@H](Cc2ccccc2)C(=O)N[C@@H]([C@@H](C)CC)C(=O)N(C)[C@@H](C)C(=O)N[C@@H](CC(C)C)C(=O)N[C@@H]([C@@H](C)O)C(=O)N[C@H](C(=O)N2CCCCC2)Cc2cccc1c2` [DP-889], in data set [1], the microsomal CLint at 1 uM is 89 µL/min/mg. For the same compound, the Papp at 18 hours, 50 µM in data set [2] amounted to 3.6 ×10⁻⁶ cm/s.

As for `CC[C@H](C)[C@@H]1NC(=O)[C@H](Cc2ccccc2)N(C)C(=O)[C@H](Cc2ccccc2)NC(=O)[C@H](CC(C)C)N(C)C(=O)[C@H](C(C)C)NC(=O)[C@H](CC(C)C)NC(=O)[C@H](C)N(C)C(=O)CNC(=O)CCCCc2cccc(c2)C[C@@H](C(=O)N2CCCCC2)NC(=O)[C@H]([C@@H](C)O)NC(=O)[C@H](CC(C)C)NC(=O)[C@H](C)N(C)C1=O` [DP-893] (G[NMeA]LV[NMeL]F[NMeF]I[NMeA]LT[Phe(3-(CH2)4CO)]-Piperidide; lactam N-12), the microsomal CLint at 1 uM in data set [1] came to 86 µL/min/mg. For the same compound, the Papp at 18 hours, 50 µM in data set [2] stood at 5.3 ×10⁻⁶ cm/s.

For the compound `CC[C@H](C)[C@@H]1NC(=O)[C@H](Cc2ccccc2)N(C)C(=O)[C@H](Cc2ccccc2)NC(=O)[C@H](CC(C)C)N(C)C(=O)[C@H](C(C)C)NC(=O)[C@H](CC(C)C)NC(=O)CCCCc2cccc(c2)C[C@@H](C(=O)N2CCCCC2)NC(=O)[C@H]([C@@H](C)O)NC(=O)[C@H](CC(C)C)NC(=O)[C@H](C)N(C)C1=O` [DP-894] (LV[NMeL]F[NMeF]I[NMeA]LT[Phe(3-(CH2)4CO)]-Piperidide; lactam N-10), the microsomal CLint at 1 uM in data set [1] came out at 71 µL/min/mg. Moreover, the Papp at 18 hours, 50 µM in data set [2] came out at 0.46 ×10⁻⁶ cm/s.

With `CC[C@H](C)[C@H]1C(=O)N[C@@H](Cc2ccccc2)C(=O)N(C)[C@@H](Cc2ccccc2)C(=O)N[C@@H]([C@@H](C)O)C(=O)N2CCC[C@H]2C(=O)N[C@@H](CC(C)C)C(=O)N[C@H](C(=O)N2CCCCC2)Cc2cccc(c2)CCCCC(=O)N[C@@H](C(C)C)C(=O)N(C)CC(=O)N[C@@H](CC(C)C)C(=O)N(C)[C@@H](CC(C)C)C(=O)N[C@@H](C)C(=O)N1C` [DP-896] (V[Sar]L[NMeL]A[NMeI]F[NMeF]TPL[Phe(3-(CH2)4CO)]-Piperidide; lactam N-12), in data set [1], the microsomal CLint at 1 uM is 57 µL/min/mg. The Papp at 18 hours, 50 µM in data set [2] amounted to 13 ×10⁻⁶ cm/s.

Regarding `CC[C@H](C)[C@H]1C(=O)N[C@@H](Cc2ccccc2)C(=O)N(C)[C@@H](Cc2ccccc2)C(=O)N[C@@H]([C@@H](C)O)C(=O)N2CCC[C@H]2C(=O)N[C@@H](CC(C)C)C(=O)N[C@H](C(=O)N2CCCCC2)Cc2cccc(c2)CCCCC(=O)N[C@@H](CC(C)C)C(=O)N(C)[C@@H](CC(C)C)C(=O)N[C@@H](C)C(=O)N1C` [DP-897] (L[NMeL]A[NMeI]F[NMeF]TPL[Phe(3-(CH2)4CO)]-Piperidide; lactam N-10), in data set [1], the microsomal CLint at 1 uM was 56 µL/min/mg. Besides, the Papp at 18 hours, 50 µM in data set [2] stood at 2.4 ×10⁻⁶ cm/s.

As for `CC[C@H](C)[C@@H]1NC(=O)[C@H](Cc2ccccc2)NC(=O)[C@@H]2CCCN2C(=O)[C@H](CC(C)C)N(C)C(=O)[C@H](Cc2ccccc2)NC(=O)[C@H](CC(C)C)NC(=O)[C@H]([C@@H](C)O)NC(=O)[C@H](C)N(C)C(=O)[C@H](C(C)C)NC(=O)CCCCc2cccc(c2)C[C@@H](C(=O)N2CCCCC2)NC(=O)[C@H](CC(C)C)NC(=O)CN(C)C1=O` [DP-900] (V[NMeA]TLF[NMeL]PFI[Sar]L[Phe(3-(CH2)4CO)]-Piperidide; lactam N-12), the microsomal CLint at 1 uM in data set [1] stood at 244 µL/min/mg. Further, in data set [2], the Papp at 18 hours, 50 µM was determined as 1.3 ×10⁻⁶ cm/s.

`CC[C@H](C)[C@@H]1NC(=O)[C@H](Cc2ccccc2)NC(=O)[C@@H]2CCCN2C(=O)[C@H](CC(C)C)N(C)C(=O)[C@H](Cc2ccccc2)NC(=O)[C@H](CC(C)C)NC(=O)[C@H]([C@@H](C)O)NC(=O)CCCCc2cccc(c2)C[C@@H](C(=O)N2CCCCC2)NC(=O)[C@H](CC(C)C)NC(=O)CN(C)C1=O` [DP-901] (TLF[NMeL]PFI[Sar]L[Phe(3-(CH2)4CO)]-Piperidide; lactam N-10): the microsomal CLint at 1 uM in data set [1] came out at 131 µL/min/mg. In addition, in data set [2], the Papp at 18 hours, 50 µM was determined as 23 ×10⁻⁶ cm/s.

On to `CC[C@H](C)[C@@H]1NC(=O)[C@H](Cc2ccccc2)NC(=O)CCCCc2cccc(c2)C[C@@H](C(=O)N2CCCCC2)NC(=O)[C@H](CC(C)C)NC(=O)[C@H](CC(C)C)NC(=O)[C@H](C(C)C)NC(=O)[C@H](C)N(C)C(=O)[C@H](Cc2ccccc2)NC(=O)CNC(=O)[C@H]([C@@H](C)O)NC(=O)[C@H](CC(C)C)NC(=O)[C@@H]2CCCN2C1=O` [DP-903] (FIPLTGF[NMeA]VLL[Phe(3-(CH2)4CO)]-Piperidide; lactam N-12), for which, in data set [1], the microsomal CLint at 1 uM stood at 26 µL/min/mg. In addition, in data set [2], the Papp at 18 hours, 50 µM amounted to 0.34 ×10⁻⁶ cm/s.

With `CC(C)C[C@H]1NC(=O)C[C@@H](C(=O)N2CCCCC2)NC(=O)[C@H](CC(C)C)N(C)C(=O)[C@H](Cc2ccccc2)NC(=O)[C@H](CC(C)C)N(C)C(=O)[C@H](C)N(C)C(=O)[C@H](Cc2c[nH]cn2)NC(=O)[C@H](CC(C)C)N(C)C(=O)[C@H](Cc2ccccc2)N(C)C1=O` [DP-904] ([dL][NMeF][NMeL]H[NMeA][NMeL]F[NMeL]D-Piperidide; lactam N-9), the microsomal CLint at 1 uM in data set [1] was found to be 89 µL/min/mg. In addition, the Papp at 18 hours, 50 µM in data set [2] came to 7.8 ×10⁻⁶ cm/s.

As to `CC(C)C[C@@H]1NC(=O)[C@H](CC(C)C)N(C)C(=O)[C@H]([C@@H](C)O)NC(=O)[C@H](Cc2ccccc2)N(C)C(=O)C[C@@H](C(=O)N2CCCCC2)NC(=O)[C@H](CC(C)C)N(C)C(=O)[C@H](Cc2c[nH]cn2)NC(=O)[C@H](Cc2ccccc2)N(C)C(=O)[C@H](Cc2ccccc2)N(C)C1=O` [DP-905] ([NMeF]T[NMeL]L[NMeF][NMeF]H[NMeL]D-Piperidide; lactam N-9), the microsomal CLint at 1 uM in data set [1] amounted to 73 µL/min/mg. The Papp at 18 hours, 50 µM in data set [2] came to 0.6 ×10⁻⁶ cm/s.

As for `CC(C)C[C@@H]1NC(=O)[C@H](CC(C)C)N(C)C(=O)C[C@@H](C(=O)N2CCCCC2)NC(=O)[C@H](CC(C)C)N(C)C(=O)[C@H](C)N(C)C(=O)[C@H]([C@@H](C)O)NC(=O)[C@H](CC(C)C)N(C)C(=O)[C@H](Cc2ccccc2)N(C)C(=O)[C@H](Cc2c[nH]cn2)NC(=O)[C@H](Cc2ccccc2)N(C)C(=O)[C@H](CC(C)C)N(C)C1=O` [DP-906] ([NMeL]L[NMeL][NMeF]H[NMeF][NMeL]T[NMeA][NMeL]D-Piperidide; lactam N-11), the microsomal CLint at 1 uM in data set [1] was determined as 49 µL/min/mg. The Papp at 18 hours, 50 µM in data set [2] was 0.65 ×10⁻⁶ cm/s.
